Reference: patent publication US10793576B2, “Compound used as Bruton's tyrosine kinase inhibitor and preparation method and application thereof” (Chengdu Brilliant Pharmaceutical Co., LTD., priority 2017, dated 2020)

How the values were obtained:
[1] = target: BTK kinase (Homo sapiens (Human), UniProt Q06187); test: In vitro assay for the inhibition of BTK kinase activity (Mobility-Shift Assay); type: biochemical
Summary of the method: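 Fluorescently labelled peptide substrate converted by the kinase; substrate and phosphorylated product separated by charge on a microfluidic chip (mobility shift) and quantified separately. Results expressed as conversion rate; control wells received 100% DMSO.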

[2] = tested on: DOHH2 cells; test: Cell proliferation inhibition in vitro, DOHH2 cells by CTG assay; type: cell-based; details: Homo sapiens, DOHH-2, 72 hours, read-out: Inhibitions of cell activities IC50 (nM) DOHH2
[3] = tested on: TMD8 cells; test: Cell proliferation inhibition in vitro, TMD8 cells by CCK-8 method; type: cell-based; details: Homo sapiens, 72 hours, read-out: Inhibitions of cell activities IC50 (nM) TMD8
[4] = tested on: OCI-LY10 cells; test: Cell proliferation inhibition in vitro, OCI-ly10 cells by CCK-8 method; type: cell-based; details: Homo sapiens, 72 hours, read-out: Inhibitions of cell activities IC50 (nM) OCI-LY10
[5] = target: hERG potassium channel (Homo sapiens (Human), UniProt Q12809); test: hERG experiment to investigate potential cardiotoxicity (manual patch clamp, CHO hERG cells); type: cell-based; details: whole cell patch clamp, tail current
Sequence of hERG potassium channel (Q12809 whole entry): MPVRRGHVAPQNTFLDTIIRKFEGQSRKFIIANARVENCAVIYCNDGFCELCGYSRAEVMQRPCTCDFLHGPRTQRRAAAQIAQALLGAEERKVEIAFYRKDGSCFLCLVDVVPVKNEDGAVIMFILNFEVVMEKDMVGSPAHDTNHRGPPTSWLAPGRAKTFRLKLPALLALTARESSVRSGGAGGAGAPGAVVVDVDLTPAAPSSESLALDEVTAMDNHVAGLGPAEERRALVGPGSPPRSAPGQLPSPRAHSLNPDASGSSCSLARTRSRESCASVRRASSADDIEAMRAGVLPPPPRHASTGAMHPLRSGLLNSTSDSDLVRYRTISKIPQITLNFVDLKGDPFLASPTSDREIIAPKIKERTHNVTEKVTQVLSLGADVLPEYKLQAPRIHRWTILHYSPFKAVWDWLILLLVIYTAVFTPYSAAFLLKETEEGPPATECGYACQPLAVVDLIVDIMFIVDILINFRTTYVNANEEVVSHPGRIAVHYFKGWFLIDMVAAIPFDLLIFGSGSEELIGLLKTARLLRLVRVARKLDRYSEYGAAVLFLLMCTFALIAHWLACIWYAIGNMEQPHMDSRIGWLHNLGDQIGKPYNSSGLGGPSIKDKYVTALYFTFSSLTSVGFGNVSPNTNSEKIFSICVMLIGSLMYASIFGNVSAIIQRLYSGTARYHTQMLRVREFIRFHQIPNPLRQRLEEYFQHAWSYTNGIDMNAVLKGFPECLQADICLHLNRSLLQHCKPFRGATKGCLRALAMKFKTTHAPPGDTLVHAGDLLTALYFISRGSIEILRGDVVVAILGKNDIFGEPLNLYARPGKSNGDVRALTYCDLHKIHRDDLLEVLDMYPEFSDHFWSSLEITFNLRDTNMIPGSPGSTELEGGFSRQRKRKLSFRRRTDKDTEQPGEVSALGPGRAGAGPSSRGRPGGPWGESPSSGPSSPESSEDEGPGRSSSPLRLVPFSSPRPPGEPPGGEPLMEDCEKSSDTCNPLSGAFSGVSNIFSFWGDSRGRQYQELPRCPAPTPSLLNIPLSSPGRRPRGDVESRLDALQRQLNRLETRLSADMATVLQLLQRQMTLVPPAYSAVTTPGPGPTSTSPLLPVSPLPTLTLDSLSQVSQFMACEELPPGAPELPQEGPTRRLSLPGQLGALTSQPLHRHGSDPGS
Protocol: CHO hERG cells were grown in a culture dish containing the above medium, and cultured in an incubator at 37° C. and 5% CO2. CHO hERG cells were transferred to circular glass slides placed in the culture dish 24-48 hours prior to electrophysiological experiments and grown under the same medium and culture conditions as above. The density of CHO hERG cells on each circular slide shall meet the requirement that most of the cells are independent and individual.
2: Preparation of Experimental Solutions
3: Electrophysiological Recording System
A manual patch clamp system (HEKA EPC-10 signal amplifier and digital conversion system, purchased from HEKA Electronics, Germany) is used in this experiment for whole cell currents recording. A circular slide with CHO hERG cells grown on its surface was placed in an electrophysiology recording tank under an inverted microscope. The extracellular fluid was continuously perfused in the recording tank (about 1 ml per minute). A conventional whole cell patch clamp current recording technique was used in the experimental procedure. Unless otherwise specified, the experiments were carried out at conventional room temperature (about 25° C.). The cells were clamped at a voltage of −80 mV. The clamp voltage for cells was depolarized to +20 mV to activate the hERG potassium channel, and after 5 seconds, the cells were clamped to −50 mV to eliminate inactivation and generate a tail current. The tail current peak was used as the value of the hERG current magnitude. After the hERG potassium current recorded in the above step was stable under the continuous extracellular fluid perfusion in the recording tank, the drug to be tested can be perfused simultaneously and filled until the inhibitory effect of the drug on the hERG current reached a steady state. Generally, the superposition of the last three consecutive current recording lines was used as a criterion for judging whether or not the state was stable. After reaching a steady state, a wash with extracellular fluid perfusion was conducted until the hERG returned to that before the drug was added. One cell can be used to test one or more drugs, or multiple concentrations of the same drug, but need to be washed with an extracellular fluid between different drugs. Cisapride (purchased from Sigma) was used as a positive control in the experiment to ensure that the cells used were of normal quality.
4: Treatment and Dilution of Compounds
Prior to testing, the compounds were first diluted to 10, 3, 1, 0.3, and 0.1 mM stock solutions by a method of gradual dilution with DMSO, and were then diluted to the final M test concentration with extracellular fluids. The final concentration of DMSO in each of the other compound solutions was 0.1%, except that the DMSO concentration in the 30 μM compound test solution was 0.3%. The test concentration of the positive control (Cisapride) was 0.1 μM. All compound solutions were sonicated and shaken for a routine of 5 to 10 minutes to ensure complete dissolution of the compounds.
The test data were analyzed by HEKA Patchmaster, Microsoft Excel and data analysis software provided by Graphpad Prism.

[6] = Pharmacokinetic test in SD rats (oral 10 mg/kg, intravenous 1 mg/kg); type: in vivo; details: SD rat; for F (po) %: oral 10 mg/kg vs intravenous 1 mg/kg; for clearance / half-life / AUC / Cmax / Tmax: male, plasma; for clearance / half-life: intravenous 1 mg/kg; for clearance: read-out: Cl (iv) (converted); for half-life: read-out: T½ (iv) h (converted); for AUC / Cmax / Tmax: oral 10 mg/kg
Protocol: SD rat, male (purchased from Shanghai Sippr-Bk Laboratory Animal Co., Ltd.), each tested compound was administered at a single dose to SD rats by oral administration (10 mg/kg, 3 rats in each group) and intravenous administration (1 mg/kg, 3 rats in each group) for the pharmacokinetic study. The tested compounds were dissolved using DMSO/[…] sodium chloride injection=5/95 (V/V), and vortexed for 1 minute, and after 1 minute of sonication, the compounds were formulated into solutions for administrations. Animals were fasted for 16-17 hours prior to oral administration and feeding was restored 4 hours after administration. After oral and intravenous administration, pharmacokinetic samples were collected from SD rats by jugular vein or cardiac puncture at the following time points: before administration, 5 minute, 15 minute, 30 minute, 1 hour, 2 hours, 4 hours, 6 hours, 8 hours and 24 hours after administration. 3 whole blood samples were collected at each time point, and the collected amount was about 0.2 mL, and the collected samples were anticoagulated by heparin sodium. After collection, the blood samples were immediately placed on ice and centrifuged to separate plasma within 30 minutes (centrifugation conditions: 8000 rpm, 6 minute, 2-8° C.). The collected plasma was stored at −70° C. prior to analysis. 50 μL of plasma sample was brought into a 1.5 mL centrifuge tube, 250 μL of internal standard solution (blank with no internal standard but the same volume of methanol added) was added, blended with vortex, centrifuged at 15000 rpm for 5 minutes. 200 μL of supernatant was taken and added to a 96-well sample plate and the samples were analyzed by LC-MS/MS.

Sequence of BTK kinase (Q06187 whole entry): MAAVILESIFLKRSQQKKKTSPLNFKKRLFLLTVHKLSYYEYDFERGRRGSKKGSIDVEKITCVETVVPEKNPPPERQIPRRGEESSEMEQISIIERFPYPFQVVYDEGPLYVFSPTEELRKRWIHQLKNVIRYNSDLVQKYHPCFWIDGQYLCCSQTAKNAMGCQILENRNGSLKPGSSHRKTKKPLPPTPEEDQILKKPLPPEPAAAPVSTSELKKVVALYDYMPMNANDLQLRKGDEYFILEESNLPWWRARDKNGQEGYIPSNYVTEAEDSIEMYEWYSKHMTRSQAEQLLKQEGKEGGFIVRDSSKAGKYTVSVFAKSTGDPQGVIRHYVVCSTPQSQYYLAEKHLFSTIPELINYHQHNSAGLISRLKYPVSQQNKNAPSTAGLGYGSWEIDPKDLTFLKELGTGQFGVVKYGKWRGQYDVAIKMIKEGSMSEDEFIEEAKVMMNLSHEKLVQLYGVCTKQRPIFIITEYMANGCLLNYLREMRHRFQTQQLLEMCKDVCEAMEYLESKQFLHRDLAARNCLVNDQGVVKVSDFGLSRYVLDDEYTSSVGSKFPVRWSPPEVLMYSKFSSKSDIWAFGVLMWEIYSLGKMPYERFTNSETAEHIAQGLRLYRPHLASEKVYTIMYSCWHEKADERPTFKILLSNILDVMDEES

| IC50 [1] | IC50 [4] | F (po) % [6] | clearance [6] | half-life [6] | AUC [6] | Cmax [6] | Tmax [6] | Compound | IC50 [2] | IC50 [3] | IC50 [5] |
| --- | --- | --- | --- | --- | --- | --- | --- | --- | --- | --- | --- |
| 3.3 nM | 0.38 nM | 36.56% | 58.5 mL/min/kg | 36 min | 1040 ng·h/mL | 1160 ng/mL | 15 min | C=CC(=O)N1[C@@H]2CC[C@@H](C2)[C@H]1c1nc(-c2ccc(C(=O)Nc3ccccn3)cc2)c2c(N)nccn12 [Example 22, 4-(3-((1R,3S,4S)-2-acryloyl-2-azabicyclo[2.2.1]heptan-3-yl)-8-aminoimidazo[1,5-a]pyrazin-1-yl)-N-(pyridin-2-yl)benzamide] | 182 nM | 4.2 nM | > 30000 nM |
| 5.2 nM | 0.41 nM | 21.89% | 38 mL/min/kg | 18 min | 971 ng·h/mL | 1120 ng/mL | 15 min | CC#CC(=O)N1C2CC[C@@H](C2)C1c1nc(-c2ccc(C(=O)Nc3cc(C(F)(F)F)ccn3)cc2)c2c(N)nccn12 (some centres unmarked) [Example 47] | 172 nM | 4.6 nM | > 30000 nM |
| 4.9 nM | 0.13 nM | 27.12% | 57.5 mL/min/kg | 31.2 min | 770 ng·h/mL | 1110 ng/mL | 12.6 min | C=CC(=O)N1C2CC[C@@H](C2)C1c1nc(-c2ccc(C(C)(O)c3ccccc3)cc2)c2c(N)nccn12 (some centres unmarked) [Example 79] | 164 nM | 1.2 nM | > 30000 nM |

| Compound | IC50 [1] | IC50 [4] | F (po) % [6] | clearance [6] | half-life [6] | AUC [6] | Cmax [6] | Tmax [6] | IC50 [2] | IC50 [3] | IC50 [5] |
| --- | --- | --- | --- | --- | --- | --- | --- | --- | --- | --- | --- |
| C=CC(=O)N1C2CCC1(c1nc(-c3ccc(C(=O)Nc4ccccn4)cc3)c3c(N)nccn13)COC2 (centres unmarked) [Example 11] | 2.6 nM | 1.8 nM | 34.59% | 36.5 mL/min/kg | 28.2 min | 1580 ng·h/mL | 1610 ng/mL | 19.8 min | 133 nM | 1.5 nM | > 30000 nM |
